The values that follow come from patent publication US4298727A, “3',4'-Dideoxykanamycin A and 1-N-(S)-α-hydroxy-ω-aminoalkanoyl) derivatives thereof” (Zaidan Hojin Biseibutsu Kagaku KenkyuKai, priority 1979, dated 1981).

Data set [1] has as its system mice. Kind of data set: acute toxicity, intravenous injection in mice. In kind it is in vivo. The source says: Therefore, the new compounds of this invention are useful in therapeutic treatment of infections by various gram-negative and gram-positive bacteria, including the resistant bacterial strains. […] Accordingly, the low toxicity of the above new compounds of general formula (I) according to this invention is note-worthy, and the low toxicity of the new compounds of this invention with retaining the antibacterial activity substantially as high as that of the above-described known drugs will facilitate the clinical use of the new compounds, fulfilling the modern demand for providing efficient and less toxic drugs.

Data set [2] deals with Providencia 19. Briefly: MIC, standard serial dilution on nutrient agar. The settings on record: Providencia, 19, 18 h. In kind it is cell-based.
Data set [3] deals with resistant bacteria. The following applies: in words, from Table 1. The procedure:
The minimum inhibitory concentrations (mcg/ml) of the new compounds of this invention against various microorganisms were determined according to a standard serial dilution method using nutrient agar incubation medium at 37° C., the estimation being made after 18 hours incubation. For comparison purpose, the MIC. of kanamycin A, amikacin and dibekacin was also determined under the same test conditions.

Data set [4] concerns Klebsiella pneumoniae 22 #3038. Kind of data set: MIC, standard serial dilution on nutrient agar. It is filed as cell-based. The settings on record: Klebsiella pneumoniae, 18 h.
The test system of data set [5] is Staphylococcus aureus MS 9610. Kind of data set: MIC, standard serial dilution on nutrient agar. In kind it is cell-based. The following applies: Staphylococcus aureus, MS9610, 18 h.
Data set [6] concerns Enterobacter HAU. Briefly: MIC, standard serial dilution on nutrient agar. In kind it is cell-based.
The subject of data set [7] is Sarcina lutea PCI 1001. Briefly: MIC, standard serial dilution on nutrient agar. The settings on record: Micrococcus luteus, PCI1001, 18 h. In kind it is cell-based.
In data set [8] the test system is Proteus rettgeri AUB. Briefly: MIC, standard serial dilution on nutrient agar. The following applies: Providencia rettgeri. It is filed as cell-based.
In data set [9] the test system is Klebsiella BRIA. Briefly: MIC, standard serial dilution on nutrient agar. It is filed as cell-based.
Data set [10] relates to Serratia BOT. Briefly: MIC, standard serial dilution on nutrient agar. In kind it is cell-based. The settings on record: Serratia, 18 h.
Data set [11] relates to Enterobacter 666. Kind of data set: MIC, standard serial dilution on nutrient agar. It is filed as cell-based. The settings on record: 37° C., 18 hours.
The subject of data set [12] is Escherichia coli K-12. Kind of data set: MIC, standard serial dilution on nutrient agar. It is filed as cell-based. The following applies: K12, 37° C., 18 hours.
Data set [13] deals with Pseudomonas aeruginosa A3. Briefly: MIC, standard serial dilution on nutrient agar. It is filed as cell-based. The following applies: Pseudomonas aeruginosa, A3, 18 h.
For data set [14], the system named is Pyocyanique. Briefly: MIC, standard serial dilution on nutrient agar. It is filed as cell-based. The settings on record: 18 h.
The subject of data set [15] is Proteus vulgaris BAC. Kind of data set: MIC, standard serial dilution on nutrient agar. In kind it is cell-based.
Data set [16] relates to Staphylococcus aureus APOI. Briefly: MIC, standard serial dilution on nutrient agar. In kind it is cell-based.
The subject of data set [17] is Serratia 7. Kind of data set: MIC, standard serial dilution on nutrient agar. It is filed as cell-based. The following applies: Serratia, 7, 18 h.
Data set [18] deals with Staphylococcus aureus 209P. Kind of data set: MIC, standard serial dilution on nutrient agar. In kind it is cell-based.
In data set [19] the test system is Serratia CAT. Kind of data set: MIC, standard serial dilution on nutrient agar. In kind it is cell-based.
Data set [20] deals with Klebsiella HOU. Kind of data set: MIC, standard serial dilution on nutrient agar. In kind it is cell-based. The following applies: Klebsiella, 18 h.
For data set [21], the system named is Providencia ZAO. Kind of data set: MIC, standard serial dilution on nutrient agar. In kind it is cell-based.
Data set [22] has as its system Escherichia coli K-12 ML 1629. Kind of data set: MIC, standard serial dilution on nutrient agar. The following applies: K12ML1629, 37° C., 18 hours. It is filed as cell-based.
In data set [23] the test system is Klebsiella THO. Briefly: MIC, standard serial dilution on nutrient agar. It is filed as cell-based.
Data set [24] relates to Providencia Pv 37. Kind of data set: MIC, standard serial dilution on nutrient agar. It is filed as cell-based. The settings on record: PV37, 37° C., 18 hours.
Data set [25] deals with Staphylococcus epidermides 109. Briefly: MIC, standard serial dilution on nutrient agar. It is filed as cell-based. The settings on record: Staphylococcus, 109, 18 h.
For data set [26], the system named is Erwinia 7-22. Briefly: MIC, standard serial dilution on nutrient agar. It is filed as cell-based. The following applies: 722, 37° C., 18 hours.
Data set [27] relates to Staphylococcus aureus MS 9883. Kind of data set: MIC, standard serial dilution on nutrient agar. It is filed as cell-based.
Data set [28] concerns resistant bacteria. The following applies: in words, background art; cited from earlier work.

Converted amounts (≈) assume the structure as drawn. Like-named read-outs stand apart in the source and are kept apart here. Bounds are passed on as bounds.

For the compound gentamicin, the “LD50 value (acute toxicity)” value in data set [1] was in the range of 80 to 120 mg/kg.
With `NCC1CCC(O)C(OC2C(N)CC(N)C(OC3OC(CO)C(O)C(N)C3O)C2O)O1` (centres unmarked) [Compound No. 1, 3',4'-dideoxykanamycin A], the MIC was 100 µg/mL (≈ 221 µM) in data set [2]; more than 100 µg/mL in data set [4]; 6.25 µg/mL (≈ 13.8 µM) in [5]; 12.5 µg/mL (≈ 27.6 µM) in [6] (Enterobacter HAU, nutrient agar, 37° C., 18 hours, read-out: MIC.); 12.5 µg/mL (≈ 27.6 µM) in [7]; more than 100 µg/mL in data set [8] (18 h). Also, the MIC was more than 100 µg/mL in data set [9] (Klebsiella, 18 h); 50 µg/mL (≈ 110 µM) in data set [10]; 100 µg/mL (≈ 221 µM) in [11]; 6.25 µg/mL (≈ 13.8 µM) in data set [12]; 6.25 µg/mL (≈ 13.8 µM) in data set [13]; more than 100 µg/mL in data set [14]. Besides, the MIC is 3.12 µg/mL (≈ 6.89 µM) in data set [15] (Proteus vulgaris BAC, nutrient agar, 37° C., 18 hours, read-out: MIC.); 3.12 µg/mL (≈ 6.89 µM) in data set [16] (Staphylococcus aureus APOI, nutrient agar, 37° C., 18 hours, read-out: MIC.); more than 100 µg/mL in data set [17]; 3.12 µg/mL (≈ 6.89 µM) in data set [18] (Staphylococcus aureus 209P, nutrient agar, 37° C., 18 hours, read-out: MIC.); 12.5 µg/mL (≈ 27.6 µM) in data set [19] (Serratia CAT, nutrient agar, 37° C., 18 hours, read-out: MIC.); more than 100 µg/mL in data set [20]. The MIC in data set [21] (Providencia ZAO, nutrient agar, 37° C., 18 hours, read-out: MIC.) was 12.5 µg/mL (≈ 27.6 µM); in [22], 6.25 µg/mL (≈ 13.8 µM); in [23] (Klebsiella, 18 h), 6.25 µg/mL (≈ 13.8 µM); in data set [24], more than 100 µg/mL; in [25], 6.25 µg/mL (≈ 13.8 µM); in data set [26] it was more than 100 µg/mL. In data set [27] (Staphylococcus aureus, MS9883, 18 h), this compound yielded a minimum inhibitory concentration (MIC) of 6.25 µg/mL (≈ 13.8 µM). Moreover, in data set [3], the “antibacterial activity against various resistant bacteria” value is recorded as “remarkably higher antibacterial activity against various resistant bacteria than the parent kanamycin A”.
As to `NCC[C@H](O)C(=O)N[C@@H]1C[C@H](N)[C@@H](O[C@H]2O[C@H](CN)[C@@H](O)[C@H](O)[C@H]2O)[C@H](O)[C@H]1O[C@H]1O[C@H](CO)[C@@H](O)[C@H](N)[C@H]1O` [Amikacin, 1-N-((S)-2-hydroxy-4-aminobutyryl)-kanamycin A], the minimum inhibitory concentration (MIC) in data set [2] stood at 12.5 µg/mL (≈ 21.3 µM); in [4], 3.12 µg/mL (≈ 5.33 µM); in data set [5], 3.12 µg/mL (≈ 5.33 µM); in [6] (Enterobacter, 18 h), 50 µg/mL (≈ 85.4 µM); in data set [7], 3.12 µg/mL (≈ 5.33 µM); in data set [8] (Proteus rettgeri AUB, nutrient agar, 37° C., 18 hours, read-out: MIC.) it was 6.25 µg/mL (≈ 10.7 µM). Besides, the MIC amounted to 6.25 µg/mL (≈ 10.7 µM) in [9] (Klebsiella BRIA, nutrient agar, 37° C., 18 hours, read-out: MIC.); 12.5 µg/mL (≈ 21.3 µM) in [10]; 1.56 µg/mL (≈ 2.66 µM) in data set [11]; 1.56 µg/mL (≈ 2.66 µM) in data set [12]; 1.56 µg/mL (≈ 2.66 µM) in data set [13]; 50 µg/mL (≈ 85.4 µM) in data set [14]. For the same compound, the MIC was found to be 3.12 µg/mL (≈ 5.33 µM) in data set [15] (Proteus vulgaris, 18 h); 1.56 µg/mL (≈ 2.66 µM) in [16] (Staphylococcus aureus, 18 h); 12.5 µg/mL (≈ 21.3 µM) in [17]; 3.12 µg/mL (≈ 5.33 µM) in [18] (Staphylococcus aureus, 209P, 18 h); 12.5 µg/mL (≈ 21.3 µM) in data set [19] (Serratia, 18 h); 12.5 µg/mL (≈ 21.3 µM) in data set [20]. For the same compound, the MIC in [21] (Providencia, 18 h) stood at 12.5 µg/mL (≈ 21.3 µM); in [22], 1.56 µg/mL (≈ 2.66 µM); in data set [23] (Klebsiella THO, nutrient agar, 37° C., 18 hours, read-out: MIC.) it was 6.25 µg/mL (≈ 10.7 µM); in data set [24], 12.5 µg/mL (≈ 21.3 µM); in [25] it was 3.12 µg/mL (≈ 5.33 µM); in [26], 1.56 µg/mL (≈ 2.66 µM). The MIC in [27] (MS9883, Staphylococcus aureus MS 9883, nutrient agar, 37° C., 18 hours, read-out: MIC.) is 6.25 µg/mL (≈ 10.7 µM). Also, the “activity against resistant bacteria” value in data set [28] is given as “cannot be inactivated by the kanamycin-resistant bacteria”.
